From PubChem BioAssay AID1745844 (Carcinogenic Potency Database (CPDB), 2022)
Active and inactive are the calls of the source. How the calls were made is not given here.

System: rodent lifetime carcinogenesis bioassay, tumor incidence TD50
Assay: carcinogenic potency in animals, long-term in vivo studies, CPDB compilation (AID 1745844)

Structure (SMILES): CCOP(=S)(OCC)Oc1ccc([N+](=O)[O-])cc1
- carcinogen call (mouse, strain B6C3F1, females, in feed, site: any site (literature study), lesion: several types, types named in the paper, dosed 80 weeks, study length 89 weeks): negative (inactive)
- TD50 (mouse, strain B6C3F1, males, in feed, site: any site (literature study), lesion: several types, types named in the paper, dosed 67 weeks, study length 89 weeks): 75.1 mg/kg/day (inactive)
- TD50 (mouse, strain B6C3F1, males, in feed, site: liver, lesion: hepatocellular adenoma + hepatocellular carcinoma + neoplastic nodule, dosed 67 weeks, study length 89 weeks): 111 mg/kg/day
- TD50 (mouse, strain B6C3F1, males, in feed, site: lung, lesion: alveolar/bronchiolar adenoma + alveolar/bronchiolar carcinoma, dosed 67 weeks, study length 89 weeks): 52.5 mg/kg/day
- TD50 (rat, strain Osborne-Mendel, females, in feed, site: adrenal gland, lesion: cortical adenoma + cortical carcinoma, dosed 80 weeks, study length 109 weeks): 3.93 mg/kg/day
- TD50 (rat, strain Osborne-Mendel, females, in feed, site: adrenal gland, lesion: cortical adenoma, dosed 80 weeks, study length 109 weeks): 5.31 mg/kg/day
- carcinogen call (rat, strain Osborne-Mendel, females, in feed, site: any site (literature study), lesion: several types, types named in the paper, dosed 80 weeks, study length 112 weeks): negative (inactive)
- TD50 (rat, strain Osborne-Mendel, females, in feed, site: liver, lesion: hepatocellular adenoma + hepatocellular carcinoma + neoplastic nodule, dosed 80 weeks, study length 112 weeks): 16.4 mg/kg/day
- TD50 (rat, strain Osborne-Mendel, females, in feed, site: mammary gland, lesion: fibroadenoma, dosed 80 weeks, study length 109 weeks): 2.07 mg/kg/day
- TD50 (rat, strain Osborne-Mendel, males, in feed, site: adrenal gland, lesion: cortical adenoma + cortical carcinoma, dosed 80 weeks, study length 109 weeks): 5.22 mg/kg/day
- TD50 (rat, strain Osborne-Mendel, males, in feed, site: adrenal gland, lesion: cortical adenoma, dosed 80 weeks, study length 109 weeks): 6.39 mg/kg/day
- TD50 (rat, strain Osborne-Mendel, males, in feed, site: any site (literature study), lesion: several types, types named in the paper, dosed 80 weeks, study length 112 weeks): 3.65 mg/kg/day (inactive)
- TD50 (rat, strain Osborne-Mendel, males, in feed, site: liver, lesion: hepatocellular adenoma + hepatocellular carcinoma + neoplastic nodule, dosed 80 weeks, study length 112 weeks): 17.7 mg/kg/day
- TD50 (rat, strain Osborne-Mendel, males, in feed, site: pancreatic islets, lesion: islet-cell carcinoma, dosed 80 weeks, study length 109 weeks): 19.2 mg/kg/day

Structure (SMILES): COc1ccc(C(Cl)=C(c2ccc(OC)cc2)c2ccc(OC)cc2)cc1
- carcinogen call (rat, strain Charles River CD (Sprague-Dawley), females, in feed, site: liver, lesion: one or several types, types not named, dosed 104 weeks, study length 104 weeks): negative (inactive)
- carcinogen call (rat, strain Charles River CD (Sprague-Dawley), males, in feed, site: liver, lesion: one or several types, types not named, dosed 104 weeks, study length 104 weeks): negative (inactive)

Structure (SMILES): Clc1ccc2c(c1)Oc1ccc(Cl)cc1O2
- carcinogen call (mouse, strain B6C3F1, females, in feed, site: any site (literature study), lesion: several types, types named in the paper, dosed 90 weeks, study length 91 weeks): negative (inactive)
- TD50 (mouse, strain B6C3F1, males, in feed, site: all sites, lesion: hemangioma + hemangiosarcoma, dosed 90 weeks, study length 92 weeks): 2750 mg/kg/day
- TD50 (mouse, strain B6C3F1, males, in feed, site: all sites, lesion: leukemia + lymphoma, dosed 90 weeks, study length 92 weeks): 1920 mg/kg/day
- TD50 (mouse, strain B6C3F1, males, in feed, site: any site (literature study), lesion: several types, types named in the paper, dosed 90 weeks, study length 92 weeks): 2910 mg/kg/day
- TD50 (mouse, strain B6C3F1, males, in feed, site: liver, lesion: hepatocellular adenoma + hepatocellular carcinoma + neoplastic nodule, dosed 90 weeks, study length 92 weeks): 2120 mg/kg/day
- TD50 (mouse, strain B6C3F1, males, in feed, site: liver, lesion: hepatocellular adenoma + hepatocellular carcinoma, dosed 90 weeks, study length 92 weeks): 2120 mg/kg/day
- carcinogen call (rat, strain Osborne-Mendel, females, in feed, site: any site (literature study), lesion: several types, types named in the paper, dosed 110 weeks, study length 110 weeks): negative (inactive)
- carcinogen call (rat, strain Osborne-Mendel, males, in feed, site: any site (literature study), lesion: several types, types named in the paper, dosed 110 weeks, study length 110 weeks): negative (inactive)
- TD50 (rat, strain Osborne-Mendel, males, in feed, site: liver, lesion: hepatocellular adenoma + hepatocellular carcinoma + neoplastic nodule, dosed 110 weeks, study length 110 weeks): 12900 mg/kg/day

Structure (SMILES): O=NN(c1ccccc1)c1ccccc1
- TD50 (mouse, strain B6AKF1, females, oral dosing, site: any site (literature study), lesion: several types, types named in the paper, dosed 76 weeks, study length 76 weeks): 3260 mg/kg/day
- TD50 (mouse, strain B6AKF1, females, oral dosing, site: lung, lesion: adenoma, dosed 76 weeks, study length 76 weeks): 1020 mg/kg/day
- carcinogen call (mouse, strain B6C3F1, females, in feed, site: any site (literature study), lesion: several types, types named in the paper, dosed 98 weeks, study length 101 weeks): negative (inactive)
- carcinogen call (mouse, strain B6C3F1, males, in feed, site: any site (literature study), lesion: several types, types named in the paper, dosed 101 weeks, study length 101 weeks): negative (inactive)
- TD50 (mouse, strain B6C3F1, males, oral dosing, site: any site (literature study), lesion: several types, types named in the paper, dosed 76 weeks, study length 76 weeks): 897 mg/kg/day
- TD50 (mouse, strain B6C3F1, males, oral dosing, site: liver, lesion: hepatoma, dosed 76 weeks, study length 76 weeks): 385 mg/kg/day
- TD50 (mouse, strain B6C3F1, males, oral dosing, site: lung, lesion: adenoma, dosed 76 weeks, study length 76 weeks): 9670 mg/kg/day
- TD50 (rat, strain CB, males, i.p., site: liver, lesion: hepatoma, dosed 26 weeks, study length 100 weeks): 18.9 mg/kg/day (inactive)
- TD50 (rat, strain Fischer 344, females, in feed, site: any site (literature study), lesion: several types, types named in the paper, dosed 100 weeks, study length 100 weeks): 159 mg/kg/day
- TD50 (rat, strain Fischer 344, females, in feed, site: urinary bladder, lesion: transitional-cell carcinoma, dosed 100 weeks, study length 100 weeks): 116 mg/kg/day
- TD50 (rat, strain Fischer 344, males, in feed, site: all sites, lesion: fibroma, dosed 100 weeks, study length 100 weeks): 537 mg/kg/day
- TD50 (rat, strain Fischer 344, males, in feed, site: any site (literature study), lesion: several types, types named in the paper, dosed 100 weeks, study length 100 weeks): 136000 mg/kg/day
- TD50 (rat, strain Fischer 344, males, in feed, site: liver, lesion: hepatocellular adenoma + hepatocellular carcinoma + neoplastic nodule, dosed 100 weeks, study length 100 weeks): 5450 mg/kg/day
- TD50 (rat, strain Fischer 344, males, in feed, site: urinary bladder, lesion: transitional-cell carcinoma, dosed 100 weeks, study length 100 weeks): 299 mg/kg/day

Structure (SMILES): O=S1(=O)CCCO1
- TD50 (rat, strain Charles River CD (Sprague-Dawley), females, by gavage, site: all sites, lesion: granulocytic leukemia, dosed 46 weeks, study length 60 weeks): 18.6 mg/kg/day
- TD50 (rat, strain Charles River CD (Sprague-Dawley), females, by gavage, site: cerebellum, lesion: malignant glioma, dosed 46 weeks, study length 60 weeks): 7.2 mg/kg/day
- TD50 (rat, strain Charles River CD (Sprague-Dawley), females, by gavage, site: cerebrum, lesion: malignant glioma, dosed 46 weeks, study length 60 weeks): 4.06 mg/kg/day
- TD50 (rat, strain Charles River CD (Sprague-Dawley), females, by gavage, site: mammary gland, lesion: adenocarcinoma, dosed 46 weeks, study length 60 weeks): 4.13 mg/kg/day
- TD50 (rat, strain Charles River CD (Sprague-Dawley), females, by gavage, site: small intestine, lesion: adenocarcinoma, dosed 46 weeks, study length 60 weeks): 31.7 mg/kg/day
- TD50 (rat, strain Charles River CD (Sprague-Dawley), males, by gavage, site: all sites, lesion: granulocytic leukemia, dosed 46 weeks, study length 60 weeks): 23.5 mg/kg/day
- TD50 (rat, strain Charles River CD (Sprague-Dawley), males, by gavage, site: cerebellum, lesion: malignant glioma, dosed 46 weeks, study length 60 weeks): 4.75 mg/kg/day
- TD50 (rat, strain Charles River CD (Sprague-Dawley), males, by gavage, site: cerebrum, lesion: malignant glioma, dosed 46 weeks, study length 60 weeks): 3.64 mg/kg/day
- TD50 (rat, strain Charles River CD (Sprague-Dawley), males, by gavage, site: small intestine, lesion: adenocarcinoma, dosed 46 weeks, study length 60 weeks): 15.4 mg/kg/day

Structure (SMILES): CC(=O)Nc1ccc2c(c1)Cc1cc(NC(C)=O)ccc1-2
- TD50 (monkey, strain Cynomolgus [Macaca fascicularis], both sexes, in feed, site: breast, lesion: carcinoma, dosed 258 weeks, study length 1513 weeks): 307 mg/kg/day
- TD50 (monkey, strain Cynomolgus [Macaca fascicularis], both sexes, in feed, site: lung, lesion: alveolar/bronchiolar carcinoma, dosed 258 weeks, study length 1513 weeks): 25.6 mg/kg/day

Structure (SMILES): CC(O)CN(CC(O)CO)N=O (configuration not stated)
- TD50 (hamster, strain Syrian Golden, females, by gavage, site: forestomach, lesion: several types, types named in the paper, dosed 41 weeks, study length 75 weeks): 1.59 mg/kg/day
- TD50 (hamster, strain Syrian Golden, females, by gavage, site: forestomach, lesion: squamous-cell papilloma, dosed 41 weeks, study length 75 weeks): 1.59 mg/kg/day
- TD50 (hamster, strain Syrian Golden, females, by gavage, site: liver, lesion: cholangioadenoma, dosed 41 weeks, study length 75 weeks): 32.6 mg/kg/day
- TD50 (rat, strain Fischer 344, females, in drinking water, site: esophagus, lesion: carcinoma, dosed 37 weeks, study length 85 weeks): 0.117 mg/kg/day
- TD50 (rat, strain Fischer 344, females, in drinking water, site: esophagus, lesion: several types, types named in the paper, dosed 37 weeks, study length 85 weeks): 0.0535 mg/kg/day
- TD50 (rat, strain Fischer 344, females, in drinking water, site: forestomach, lesion: several types, types named in the paper, dosed 37 weeks, study length 85 weeks): 0.178 mg/kg/day
- TD50 (rat, strain Fischer 344, females, in drinking water, site: liver, lesion: hepatocellular carcinoma, dosed 37 weeks, study length 85 weeks): 2.4 mg/kg/day
- TD50 (rat, strain Fischer 344, females, in drinking water, site: tongue, lesion: several types, types named in the paper, dosed 37 weeks, study length 85 weeks): 0.0888 mg/kg/day
- TD50 (rat, strain Fischer 344, females, in drinking water, site: tongue, lesion: squamous-cell carcinoma, dosed 37 weeks, study length 85 weeks): 0.241 mg/kg/day

Structure (SMILES): CN=[N+](C)[O-]
- TD50 (rat, strain Fischer 344, males, by gavage, site: Zymbal's gland, lesion: carcinoma, dosed 30 weeks, study length 65 weeks): 0.204 mg/kg/day
- TD50 (rat, strain Fischer 344, males, by gavage, site: colon, lesion: malignant tumor, dosed 30 weeks, study length 65 weeks): 0.171 mg/kg/day
- TD50 (rat, strain Fischer 344, males, by gavage, site: colon, lesion: one or several types, types not named, dosed 30 weeks, study length 65 weeks): 0.102 mg/kg/day
- TD50 (rat, strain Fischer 344, males, by gavage, site: kidney, lesion: mesenchymal neoplasm, dosed 30 weeks, study length 65 weeks): 0.3 mg/kg/day
- carcinogen call (rat, strain Fischer 344, males, by gavage, site: liver, lesion: one or several types, types not named, dosed 30 weeks, study length 65 weeks): negative (inactive)
- TD50 (rat, strain Fischer 344, males, in drinking water, site: colon, lesion: several types, types named in the paper, dosed 30 weeks, study length 100 weeks): 0.585 mg/kg/day
- TD50 (rat, strain Fischer 344, males, in drinking water, site: kidney, lesion: several types, types named in the paper, dosed 30 weeks, study length 100 weeks): 0.388 mg/kg/day
- TD50 (rat, strain Fischer 344, males, in drinking water, site: liver, lesion: hemangiosarcoma, dosed 30 weeks, study length 100 weeks): 0.982 mg/kg/day
- TD50 (rat, strain Fischer 344, males, in drinking water, site: liver, lesion: hepatocellular carcinoma, dosed 30 weeks, study length 100 weeks): 0.0677 mg/kg/day
- TD50 (rat, strain Fischer 344, males, in drinking water, site: liver, lesion: neoplastic nodule, dosed 30 weeks, study length 100 weeks): 28.6 mg/kg/day
- TD50 (rat, strain Fischer 344, males, in drinking water, site: liver, lesion: several types, types named in the paper, dosed 30 weeks, study length 100 weeks): 0.0302 mg/kg/day

Structure (SMILES): CC(=O)[O-].CC(=O)[O-].CC(=O)[O-].[Cr+3]
- carcinogen call (mouse, strain Charles River CD1, females, in drinking water, site: any site (literature study), lesion: one or several types, types not named, dosed 145 weeks, study length 145 weeks): negative (inactive)
- carcinogen call (mouse, strain Charles River CD1, females, in drinking water, site: lung, lesion: one or several types, types not named, dosed 145 weeks, study length 145 weeks): negative (inactive)
- carcinogen call (mouse, strain Charles River CD1, males, in drinking water, site: any site (literature study), lesion: one or several types, types not named, dosed 139 weeks, study length 139 weeks): negative (inactive)
- carcinogen call (mouse, strain Charles River CD1, males, in drinking water, site: lung, lesion: one or several types, types not named, dosed 139 weeks, study length 139 weeks): negative (inactive)
- TD50 (rat, strain Long-Evans BLU:(LE), both sexes, in drinking water, site: any site (literature study), lesion: malignant tumor, dosed 182 weeks, study length 182 weeks): 7.62 mg/kg/day (inactive)
- TD50 (rat, strain Long-Evans BLU:(LE), both sexes, in drinking water, site: any site (literature study), lesion: one or several types, types not named, dosed 182 weeks, study length 182 weeks): 1.61 mg/kg/day (inactive)
- carcinogen call (rat, strain Long-Evans BLU:(LE), both sexes, in drinking water, site: liver, lesion: one or several types, types not named, dosed 182 weeks, study length 182 weeks): negative (inactive)
